The subject of series [1] is intrinsic pathway of coagulation in normal human plasma. Put plainly: Clotting assay: activated partial thromboplastin time (aPTT). It counts as biochemical. The procedure: (§1) Clotting assays. All clotting times were measured using an Amelung coagulometer. Activated partial thromboplastin time (aPTT) was measured by incubating the peptides diluted in sterile water at the indicated concentrations, with 100 μL citrated human plasma for 1 minute followed by the addition of 100 μL aPTT reagent (aPTT Automate, Diagnostica Stago) for 60 seconds at 37° C. Clotting was initiated by the addition of 100 μL of a 25-mM CaCl2 solution. In the prothombrin time assay (PT), clotting was initiated by the addition of 100 μL Thrombomax with calcium (PT reagent; Sigma-Aldrich). For measuring the thrombin clotting time (TCT), clotting was initiated by the addition of 100 μL Accuclot thrombin time reagent (TCT reagent; Sigma-Aldrich).

Series [2] has as its system extrinsic pathway of coagulation in normal human plasma. Put plainly: Clotting assay: prothrombin time (PT). Format: biochemical. The procedure: as §1
Series [3] concerns thrombin induced fibrin network formation in normal human plasma. Put plainly: Clotting assay: thrombin clotting time (TCT). Format: biochemical. The procedure:
as §1

Series [4] can be described thus: Properties stated for FFF21 (FIG. 56).
In a further series the test system is RAW macrophages. Put plainly: Nitric oxide induction in RAW macrophages by LPS with or without HRG. It counts as cell-based, murine. The following applies: 24 hours. The protocol:
Nitric oxide induction in RAW macrophages. Confluent cells were harvested and transferred to 96-wells plate (3.5×10^5/well). After adhesion cells were washed with phenol red-free DMEM (Gibco). E. Coli LPS (100 ng/ml), LL-37 (2 or 10 μM) or HRG (2 or 10 μM) was preincubated at 37° C. for 30 minutes and then transferred to the cells. For inhibition of NO induction, 5 µg/ml anti mouse TLR4 antibody, 10 or 100 µM GHH25 or 100 µg/ml heparin were used. The cells were stimulated for 24 hours and nitric oxide was determined using the Griess chemical method.
Nitric oxide induction in RAW macrophages. Confluent cells were harvested and transferred to 96-wells plate ([…]). After adhesion cells were washed with phenol red-free DMEM (Gibco). E. Coli LPS (100 ng/ml), LL-37 (2 or 10 μM) or HRG (2 or 10 μM) was preincubated at 37° C. for 30 minutes and then transferred to the cells. […] The cells were stimulated for 24 hours and nitric oxide was determined using the Griess chemical method.

For series [5], the system named is Human monocyte-derived macrophages. Put plainly: TNF-α release from human macrophages. Format: cell-based. The settings on record: 10 ng/ml LPS with or without HRG (2 μM); GHH25 10 and 100 μM; 24 hours. The procedure: TNF-α release from human macrophages. Human monocyte-derived macrophages (hMDMs) were obtained from peripheral blood mononuclear cells (PBMCs) obtained from the blood of healthy donors using a Lymphoprep (Axis-Shield PoC AS) density gradient. PBMCs were seeded at concentrations of 3×10^6 cells/well into 24-well plates and cultured in RPMI1640 medium supplemented with 10% heat-inactivated autologous human plasma, 2 mM L-glutamine, and 50 μl/ml Antibiotic-Antimycotic (Gibco) in a humidified atmosphere of 5% CO2. After 24 h, non-adherent cells were removed and adherent monocytes were differentiated to macrophages for 10 days, with fresh medium changes every second day. […] After stimulation the supernatant was aspirated and TNF-α was measured using the TNF-α human ELISA kit (Invitrogen).

In series [6] the test system is E. coli LPS induced sepsis in wildtype C57BL/6 mice. Put plainly: LPS induced sepsis in wildtype mice, treatment with GHH25. It counts as in vivo, mouse. The source says: Animal experiments. The original knockout mice 129/B6-HRG^tm1wja1 were crossed with C57BL/6 mice (Taconic) for 14 generations to obtain uniform genetic background. These HRG-deficient mouse strain was called B6-HRG^tm1wja1 following ILAR (Institute of Laboratory Animal Resources) rules. Wildtype C57BL/6 control mice and C57BL/6 Hrg−/− mice (8-12 weeks, 27+/−4 g) were bred in the animal facility at Lund University. C57BL/6 Hrg^−/−, lacks the translation start point of exon 1 of the Hrg gene. Animals were housed under standard conditions of light and temperature and had free access to standard laboratory chow and water. In order to induce sepsis, 18 µg/g Escherichia coli 0111:B4 LPS were injected intraperitoneally into C57BL/6 or C57BL/6 Hrg−/− mice, divided into weight and sex matched groups. Survival and status was followed during seven days.
For treatment with GHH25 peptide, 1 mg of the peptide (diluted in 10 mM Tris, pH 7.4) or buffer only was injected intraperitoneal 30 minutes after LPS-challenge and survival and status was then followed.
Animal experiments. The original knockout mice 129/B6-HRG^tm1wja1 were crossed with C57BL/6 mice (Taconic) for 14 generations to obtain uniform genetic background. These HRG-deficient mouse strain was called B6-HRG^tm1wja1 following ILAR (Institute of Laboratory Animal Resources) rules. […]

A short description of series [7]: LPS-binding slot-blot assay with iodinated LPS. Also noted: species or system Escherichia coli. The settings on record: 2 and 5 μg HRG on nitrocellulose; pH 7.4 or pH 5.5, with or without 0.15M NaCl. The protocol: Radioiodination of heparin and LPS. The radioiodination of heparin (from porcine intestinal mucosa, Sigma-Aldrich) was performed as described previously. The iodination of LPS was performed as described by Ulevitch. 1 mg Escherichia coli 0111:B4 LPS was incubated in 50 mM p-OH benzimidate in borate buffer, pH 8, over night at 4° C., and then dialyzed against PBS, pH 7.4. LPS was then radiolabelled with ^125I using the chloramine T method, and unlabelled ^125I was then removed by dialysis.
Heparin and LPS-binding assay. 1, 2 and 5 μg of the synthetic peptides in 100 μl PBS pH 7.4 were applied onto nitrocellulose membranes (Hybond-C, Amersham Biosciences) using a slot-blot apparatus. Membranes were blocked for 1 h at room temperature with 2% bovine serum albumin in PBS pH 7.4 and then incubated with radiolabelled LPS (˜40 μg·mL^−1, 0.13×10^6 cpm·μg^−1) or radiolabelled heparin (˜10 μg·mL^−1, 0.4×10^6 cpm·μg^−1) for 1 h at room temperature in PBS, pH 7.4. […] A Bas 2000 radio-imaging system (Fuji Film, Tokyo, Japan) was used to visualize radioactivity.
Slot-blot assay. […] After LPS binding, membranes were washed 3 times, 10 min each time in the above buffers and visualized for radioactivity on Bas 2000 radioimaging system (Fuji, Japan). […]
Heparin and LPS-binding assay. […] A Bas 2000 radio-imaging system (Fuji Film, Tokyo, Japan) was used to visualize radioactivity.

Procedure for erythrocytes: Hemolysis assay. EDTA-blood was centrifuged at 800 g for 10 min, whereafter plasma and buffy coat were removed. The erythrocytes were washed three times and resuspended in PBS, pH 7.4 to get a 5% suspension. The cells were then incubated with end-over-end rotation for 60 min at 37° C. in the presence of peptides (60 μM). 2% Triton X-100 (Sigma-Aldrich) served as positive control. The samples were then centrifuged at 800 g for 10 min and the supernatant was transferred to a 96 well microtiter plate. The absorbance of hemoglobin release was measured at λ 540 nm and is in the plot expressed as % of TritonX-100 induced hemolysis.

Turning to `CC[C@H](C)[C@H](NC(=O)[C@H](CCCCN)NC(=O)[C@H](CCC(=O)O)NC(=O)[C@H](CCCCN)NC(=O)[C@H](CO)NC(=O)[C@H](CCCCN)NC(=O)[C@H](CCCNC(=N)N)NC(=O)[C@H](Cc1ccccc1)NC(=O)[C@H](Cc1ccccc1)NC(=O)[C@H](CC(=O)O)NC(=O)CNC(=O)[C@H](CC(C)C)NC(=O)[C@@H](N)CC(C)C)C(=O)NCC(=O)N[C@@H](CCCCN)C(=O)N[C@@H](CCC(=O)O)C(=O)N[C@@H](Cc1ccccc1)C(=O)N[C@@H](CCCCN)C(=O)N[C@@H](CCCNC(=N)N)C(=O)N[C@H](C(=O)N[C@H](C(=O)N[C@@H](CCC(N)=O)C(=O)N[C@@H](CCCNC(=N)N)C(=O)N[C@H](C(=O)N[C@@H](CCCCN)C(=O)N[C@@H](CC(=O)O)C(=O)N[C@@H](Cc1ccccc1)C(=O)N[C@@H](CC(C)C)C(=O)N[C@@H](CCCNC(=N)N)C(=O)N[C@@H](CC(N)=O)C(=O)N[C@@H](CC(C)C)C(=O)N[C@H](C(=O)N1CCC[C@H]1C(=O)N[C@@H](CCCNC(=N)N)C(=O)N[C@H](C(=O)N[C@@H](CCC(=O)O)C(=O)N[C@@H](CO)C(=O)O)[C@@H](C)O)C(C)C)[C@@H](C)CC)C(C)C)[C@@H](C)CC` [LL-37], the “doses at which erythrocytes were readily permeabilized” value in the series on erythrocytes was greater than 6 µM.

“FFFAKLNCRLYRKANKSSKLV [FFF21, Antithrombin III-derived peptide, aa 153-173 of antithrombin III, P01008]”: in series [1], the “activated partial thromboplastin time (aPTT)” value is “impairs the intrinsic pathway of coagulation”. Also, in series [2], the “prothrombin time (PT)” value is reported as “not significantly affected”. Also, the “thrombin clotting time (TCT)” value in series [3] is “not significantly affected”. Moreover, the “antibacterial and antiinflammatory properties” value in [4] was “antibacterial and antiinflammatory properties”.

Turning to GHHPHGHHPHGHHPHGHHPHGHHPH [GHH25], in the series with RAW macrophages (100 ng/ml LPS with or without HRG (2 μM), GHH25 10 and 100 μM), the “LPS and HRG mediated NO release” value was “significantly decreased”. Moreover, in series [5], the “TNF-α (HRG and LPS induced responses)” value is “inhibits HRG and LPS induced responses”. In addition, in series [6] (1 mg GHH25 i.p. 30 minutes after E. coli LPS, followed seven days, p=0.03), the survival result was “significantly increased survival”. In [6] (LPS induced sepsis, treatment with GHH25), the health status result is listed as “Improved health status”.

B1: HRG: 67 kDa plasma protein histidine-rich glycoprotein, purified from human serum (protein, UniProt P04196 19-525, looked up)
Histidine-rich glycoprotein: VSPTDCSAVEPEAEKALDLINKRRRDGYLFQLLRIADAHLDRVENTTVYYLVLDVQESDCSVLSRKYWNDCEPPDSRRPSEIVIGQCKVIATRHSHESQDLRVIDFNCTTSSVSSALANTKDSPVLIDFFEDTERYRKQANKALEKYKEENDDFASFRVDRIERVARVRGGEGTGYFVDFSVRNCPRHHFPRHPNVFGFCRADLFYDVEALDLESPKNLVINCEVFDPQEHENINGVPPHLGHPFHWGGHERSSTTKPPFKPHGSRDHHHPHKPHEHGPPPPPDERDHSHGPPLPQGPPPLLPMSCSSCQHATFGTNGAQRHSHNNNSSDLHPHKHHSHEQHPHGHHPHAHHPHEHDTHRQHPHGHHPHGHHPHGHHPHGHHPHGHHPHCHDFQDYGPCDPPPHNQGHCCHGHGPPPGHLRRRGPGKGPRPFHCRQIGSVYRLPPLRKGEVLPLPEANFPSFPLPHHKHPLKPDNQPFPQSVSESCPGKFKSGFPQVSMFFTHTFPK
As for B1, the “LPS mediated NO release” value in the series with RAW macrophages (100 ng/ml LPS, HRG 2 and 10 μM, n=6, p=0.001) is given as “significantly increased”. Also, the “binding of iodinated LPS” value in series [7] is “LPS-binding”.

The values are drawn from patent US20120189673A1, “POLYPEPTIDES AND USES THEREOF” (priority 2009, published 2012).
